# Values of other authors as cited in patent publication US4512986A, “Progrestationally active steroids” (priority 1983, dated 1985).
# Where two headings read alike, the source gives them in different places.
# Tests used:
# [1] = molecular target: T1, Cytosol Progesterone Receptor of the Estrogen-primed Immature Rabbit Uterus (Oryctolagus cuniculus, UniProt P06186); settings: relative to progesterone = 100; literature; cited from earlier work
# T1 construct: cytosol progesterone receptor of the estrogen-primed immature rabbit uterus; tissue Dutchland Laboratories, Inc., Denver, Pa (animals); host or cells: uterus cytosol of estradiol-treated immature female New Zealand White rabbits
# T1 sequence (P06186 1-930): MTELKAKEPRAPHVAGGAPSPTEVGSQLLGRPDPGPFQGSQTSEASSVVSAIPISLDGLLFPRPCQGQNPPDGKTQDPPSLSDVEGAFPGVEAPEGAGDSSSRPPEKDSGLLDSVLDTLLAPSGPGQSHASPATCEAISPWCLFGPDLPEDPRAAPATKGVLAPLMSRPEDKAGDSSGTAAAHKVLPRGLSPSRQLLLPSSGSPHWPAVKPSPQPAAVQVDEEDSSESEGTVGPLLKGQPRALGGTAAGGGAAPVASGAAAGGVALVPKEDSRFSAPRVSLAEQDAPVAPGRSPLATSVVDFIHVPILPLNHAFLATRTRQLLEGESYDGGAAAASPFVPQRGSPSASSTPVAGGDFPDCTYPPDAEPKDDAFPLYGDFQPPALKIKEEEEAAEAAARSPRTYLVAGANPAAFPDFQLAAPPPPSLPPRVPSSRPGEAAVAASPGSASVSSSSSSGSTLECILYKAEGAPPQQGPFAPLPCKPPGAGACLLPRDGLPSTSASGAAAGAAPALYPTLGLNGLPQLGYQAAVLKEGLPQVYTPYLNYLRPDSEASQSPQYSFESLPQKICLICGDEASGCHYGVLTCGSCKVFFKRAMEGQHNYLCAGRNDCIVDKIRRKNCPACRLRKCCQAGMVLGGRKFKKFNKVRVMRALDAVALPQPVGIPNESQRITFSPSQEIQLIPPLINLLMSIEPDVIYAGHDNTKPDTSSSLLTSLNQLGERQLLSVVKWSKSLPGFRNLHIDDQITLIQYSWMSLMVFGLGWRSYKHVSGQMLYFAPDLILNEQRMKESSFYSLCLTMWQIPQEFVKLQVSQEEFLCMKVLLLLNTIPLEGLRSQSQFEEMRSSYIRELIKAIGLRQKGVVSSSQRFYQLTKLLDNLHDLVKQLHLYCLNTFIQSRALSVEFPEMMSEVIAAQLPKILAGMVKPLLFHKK
# [2] = tested on: estrogen-primed immature rabbits; settings: cited from earlier work
# [3] = tested on: endometrium of estrogen-primed ovariectomized or climacteric women; settings: oral; cited from earlier work
SMILES,RBA (Kontula et al. 1975) [1],"Threshold or effective dose, Clauberg Assay ([2]; s.c. (i.m.)) [mg/animal]","Threshold or effective dose, Kaufman Assay [3]","Threshold or effective dose, Clauberg Assay ([2]; oral) [mg/animal]"
CC(=O)[C@H]1CC[C@H]2[C@@H]3CCC4=CC(=O)CC[C@@H]4[C@H]3CC[C@]12C [19-norprogesterone],258,–,–,–
C#C[C@]1(O)CC[C@H]2[C@@H]3CCC4=CC(=O)CC[C@@H]4[C@H]3CC[C@@]21C [Norethisterone],–,0.1,100-150 mg/cycle,–
C#C[C@]1(O)CC[C@H]2[C@@H]3CCC4=C(CCC(=O)C4)[C@H]3CC[C@@]21C [Norethynodrel],–,0.3,150-200 mg/cycle,0.3
